# Legend:
# sensitive cell lines = test: Western blot of phospho-histone H2Ax induction; format: cell-based; conditions: 72 hours, 1000 nM
# Procedure: (§1) The induction of phospho-histone H2Ax was analyzed by comparing the cellular expression levels of the phosphoprotein following exposure of cells to both DMSO (blank) and lonafarnib. The levels were evaluated by western blot. The quantity of induced phosphoprotein was determined qualitatively and by using densitometric analysis of bands on the blot.
# (§2) Western blot protein analysis. Cells were lysed in RIPA buffer (50 mM Tris-HCl, 50 mM NaCl, 1% NP40, 0.5% Na-deoxycholate, 1 mM EDTA, 2.5 mM Na3VO4, 20 mM beta-glycerol phosphate, and complete protease inhibitor) and cleared by centrifugation. Protein concentration was determined using BCA reagent. Samples were separated by 14% SDS-PAGE, transferred to polyvinylidene difluoride (PVDF) membrane, immunoblotted and detected by chemiluminescence using the ECL detection reagents. Polyclonal antibodies used: Histone H2Ax and phos-Histone H2Ax (ser-139) (Cell Signaling Technology, Inc.; Danvers, Mass.). Densitometry was analyzed utilizing Quantity One software (Bio-Rad; Hercules, Calif.). Cells that were analyzed for inducation of phospho-H2Ax by western blot analysis were initially plated on plastic and then treated for 72 hours with 1000 nM of the FTI.
# MCF7 = test: Soft agar growth assay (colony area); format: cell-based, human; design: key to Cells designated sensitive (S) or resistant (R) to lonafarnib: sensitive (S); resistant (R); conditions: MCF7, breast
# Procedure: (§3) Cells were grown in soft agar and the IC50 for lonafarnib was determined. Cells were designated sensitive (S) or resistant (R). The IC50 value was determined by comparing colony areas of the cell lines exposed to the various doses of FTI. IC50 values were calculated with the XLfit program (idbs; Guildford, United Kingdom).
# (§4) Growth assays. Soft agar assays were performed in 6-well dishes by seeding 10,000-20,000 cells in each well. Cells were plated in top 0.35% low melting point agarose in DMEM:F12 with 10% fetal bovine serum over a bottom 0.6% agarose feeding layer. Cells were grown in the presence of lonafarnib for 14 days and colonies were stained with 1 mg/ml MIT (dimethylthiazol-diphenyl-terrazolium bromide) in PBS. The plates were scanned and the colony area was determined as the sum of the areas stained by MTT.
# A2780 [1] = test: Soft agar growth assay (colony area); format: cell-based; design: key to Cells designated sensitive (S) or resistant (R) to lonafarnib: sensitive (S); resistant (R); conditions: A2780, ovarian
# Procedure: as §3, §4
# AsPc1 [2] = test: Soft agar growth assay (colony area); format: cell-based; design: key to Cells designated sensitive (S) or resistant (R) to lonafarnib: sensitive (S); resistant (R); conditions: AsPc1, pancreas
# Procedure: as §3, §4
# Colo205 [3] = test: Soft agar growth assay (colony area); format: cell-based; design: key to Cells designated sensitive (S) or resistant (R) to lonafarnib: sensitive (S); resistant (R); conditions: Colo205, colon
# Procedure: as §3, §4
# DLD-1 [4] = test: Soft agar growth assay (colony area); format: cell-based; design: key to Cells designated sensitive (S) or resistant (R) to lonafarnib: sensitive (S); resistant (R); conditions: DLD-1, colon
# Procedure: as §3, §4
# DU145 [5] = test: Soft agar growth assay (colony area); format: cell-based; design: key to Cells designated sensitive (S) or resistant (R) to lonafarnib: sensitive (S); resistant (R); conditions: DU145, prostate
# Procedure: as §3, §4
# HT29 [6] = test: Soft agar growth assay (colony area); format: cell-based; design: key to Cells designated sensitive (S) or resistant (R) to lonafarnib: sensitive (S); resistant (R); conditions: HT29, colon
# Procedure: as §3, §4
# LNCap [7] = test: Soft agar growth assay (colony area); format: cell-based; design: key to Cells designated sensitive (S) or resistant (R) to lonafarnib: sensitive (S); resistant (R); conditions: prostate
# Procedure: as §3, §4
# MDA435 = test: Soft agar growth assay (colony area); format: cell-based; design: key to Cells designated sensitive (S) or resistant (R) to lonafarnib: sensitive (S); resistant (R); conditions: MDA435, breast
# Procedure: as §3, §4
# MiaPaca [8] = test: Soft agar growth assay (colony area); format: cell-based; design: key to Cells designated sensitive (S) or resistant (R) to lonafarnib: sensitive (S); resistant (R); conditions: pancreas
# Procedure: as §3, §4
# Panc1 [9] = test: Soft agar growth assay (colony area); format: cell-based; design: key to Cells designated sensitive (S) or resistant (R) to lonafarnib: sensitive (S); resistant (R); conditions: Panc1, pancreas
# Procedure: as §3, §4
# SKOV3 [10] = test: Soft agar growth assay (colony area); format: cell-based; design: key to Cells designated sensitive (S) or resistant (R) to lonafarnib: sensitive (S); resistant (R); conditions: SKOV3, ovarian
# Procedure: as §3, §4
# SNB19 [11] = test: Soft agar growth assay (colony area); format: cell-based; design: key to Cells designated sensitive (S) or resistant (R) to lonafarnib: sensitive (S); resistant (R); conditions: SNB19, glioma
# Procedure: as §3, §4
# SNB75 [12] = test: Soft agar growth assay (colony area); format: cell-based; design: key to Cells designated sensitive (S) or resistant (R) to lonafarnib: sensitive (S); resistant (R); conditions: SNB75, glioma
# Procedure: as §3, §4
# T47D [13] = test: Soft agar growth assay (colony area); format: cell-based; design: key to Cells designated sensitive (S) or resistant (R) to lonafarnib: sensitive (S); resistant (R); conditions: breast
# Procedure: as §3, §4
# TOV112D [14] = test: Soft agar growth assay (colony area); format: cell-based; design: key to Cells designated sensitive (S) or resistant (R) to lonafarnib: sensitive (S); resistant (R); conditions: ovarian
# Procedure: as §3, §4
# MCF-7 = test: Western blot of phospho-histone H2Ax induction; format: cell-based, human; conditions: 72 hours, 1000 nM FTI vs DMSO, undetectable basal level
# Procedure: as §1, §2
# A2780 [15] = test: Western blot of phospho-histone H2Ax induction; format: cell-based; conditions: 72 hours, 1000 nM FTI vs DMSO, undetectable basal level
# Procedure: as §1, §2
# AsPc1 [16] = test: Western blot of phospho-histone H2Ax induction; format: cell-based; conditions: 72 hours, 1000 nM FTI vs DMSO, densitometry
# Procedure: as §1, §2
# Colo205 [17] = test: Western blot of phospho-histone H2Ax induction; format: cell-based; conditions: 72 hours, 1000 nM FTI vs DMSO
# Procedure: as §1, §2
# DLD-1 [18] = test: Western blot of phospho-histone H2Ax induction; format: cell-based; conditions: 72 hours, 1000 nM FTI vs DMSO, densitometry
# Procedure: as §1, §2
# DU145 [19] = test: Western blot of phospho-histone H2Ax induction; format: cell-based; conditions: 72 hours, 1000 nM FTI vs DMSO, densitometry
# Procedure: as §1, §2
# HT29 [20] = test: Western blot of phospho-histone H2Ax induction; format: cell-based; conditions: 72 hours, 1000 nM FTI vs DMSO, densitometry
# Procedure: as §1, §2
# LNCap [21] = test: Western blot of phospho-histone H2Ax induction; format: cell-based; conditions: 72 hours, 1000 nM FTI vs DMSO, densitometry
# Procedure: as §1, §2
# MDA-435 = test: Western blot of phospho-histone H2Ax induction; format: cell-based; conditions: 72 hours, 1000 nM FTI vs DMSO, densitometry
# Procedure: as §1, §2
# MiaPaca [22] = test: Western blot of phospho-histone H2Ax induction; format: cell-based; conditions: 72 hours, 1000 nM FTI vs DMSO, densitometry
# Procedure: as §1, §2
# Panc1 [23] = test: Western blot of phospho-histone H2Ax induction; format: cell-based; conditions: 72 hours, 1000 nM FTI vs DMSO
# Procedure: as §1, §2
# SKOV3 [24] = test: Western blot of phospho-histone H2Ax induction; format: cell-based; conditions: 72 hours, 1000 nM FTI vs DMSO, densitometry
# Procedure: as §1, §2
# SNB19 [25] = test: Western blot of phospho-histone H2Ax induction; format: cell-based; conditions: 72 hours, 1000 nM FTI vs DMSO, undetectable basal level
# Procedure: as §1, §2
# SNB75 [26] = test: Western blot of phospho-histone H2Ax induction; format: cell-based; conditions: 72 hours, 1000 nM FTI vs DMSO, densitometry
# Procedure: as §1, §2
# T47D [27] = test: Western blot of phospho-histone H2Ax induction; format: cell-based; conditions: 72 hours, 1000 nM FTI vs DMSO, densitometry
# Procedure: as §1, §2
# TOV112D [28] = test: Western blot of phospho-histone H2Ax induction; format: cell-based; conditions: 72 hours, 1000 nM FTI vs DMSO, undetectable basal level
# Procedure: as §1, §2
# [29] = Homo sapiens, 336 h, 14 days, read-out: Lonafarnib IC50
compound,measurement,setting,value
"NC(=O)N1CCC(CC(=O)N2CCC(C3c4ncc(Br)cc4CCc4cc(Cl)cc(Br)c43)CC2)CC1 (single isomer, unassigned) [inactive enantiomer of lonafarnib]",phosphorylation of histone-H2Ax upon treatment,sensitive cell lines,does not induce
"NC(=O)N1CCC(CC(=O)N2CCC([C@H]3c4ncc(Br)cc4CCc4cc(Cl)cc(Br)c43)CC2)CC1 [Lonafarnib, lonafarnib]",IC50,MCF7; [29],10 nM
same,Cells designated sensitive (S) or resistant (R) to lonafarnib,MCF7,(S)
same,Cells designated sensitive (S) or resistant (R) to lonafarnib,A2780 [1],(S)
same,IC50,A2780 [1]; [29],80 nM
same,Cells designated sensitive (S) or resistant (R) to lonafarnib,AsPc1 [2],(R)
same,IC50,AsPc1 [2]; [29],1000 nM
same,Cells designated sensitive (S) or resistant (R) to lonafarnib,Colo205 [3],(S)
same,IC50,"Colo205 [3]; Homo sapiens, COLO 205, 336 h, 14 days, read-out: Lonafarnib IC50",330 nM
same,Cells designated sensitive (S) or resistant (R) to lonafarnib,DLD-1 [4],(S)
same,IC50,DLD-1 [4]; [29],320 nM
same,Cells designated sensitive (S) or resistant (R) to lonafarnib,DU145 [5],(R)
same,IC50,"DU145 [5]; Homo sapiens, DU-145, 336 h, 14 days, read-out: Lonafarnib IC50",1600 nM
same,Cells designated sensitive (S) or resistant (R) to lonafarnib,HT29 [6],(R)
same,IC50,"HT29 [6]; Homo sapiens, HT-29, 336 h, 14 days, read-out: Lonafarnib IC50",940 nM
same,IC50,LNCap [7]; [29],10 nM
same,Cells designated sensitive (S) or resistant (R) to lonafarnib,LNCap [7],(S)
same,IC50,"MDA435; 336 h, 14 days, read-out: Lonafarnib IC50",350 nM
same,Cells designated sensitive (S) or resistant (R) to lonafarnib,MDA435,(S)
same,IC50,"MiaPaca [8]; Homo sapiens, MIA PaCa-2, 336 h, 14 days, read-out: Lonafarnib IC50",240 nM
same,Cells designated sensitive (S) or resistant (R) to lonafarnib,MiaPaca [8],(S)
same,IC50,"Panc1 [9]; Homo sapiens, PANC-1, 336 h, 14 days, read-out: Lonafarnib IC50",440 nM
same,Cells designated sensitive (S) or resistant (R) to lonafarnib,Panc1 [9],(S)
same,IC50,"SKOV3 [10]; Homo sapiens, SK-OV-3, 336 h, 14 days, read-out: Lonafarnib IC50",2000 nM
same,Cells designated sensitive (S) or resistant (R) to lonafarnib,SKOV3 [10],(R)
same,IC50,"SNB19 [11]; Homo sapiens, SNB-19, 336 h, 14 days, read-out: Lonafarnib IC50",230 nM
same,Cells designated sensitive (S) or resistant (R) to lonafarnib,SNB19 [11],(S)
same,IC50,"SNB75 [12]; Homo sapiens, SNB-75, 336 h, 14 days, read-out: Lonafarnib IC50",> 3000 nM
same,Cells designated sensitive (S) or resistant (R) to lonafarnib,SNB75 [12],(R)
same,IC50,T47D [13]; [29],1800 nM
same,Cells designated sensitive (S) or resistant (R) to lonafarnib,T47D [13],(R)
same,IC50,TOV112D [14]; [29],100 nM
same,Cells designated sensitive (S) or resistant (R) to lonafarnib,TOV112D [14],(S)
same,phospho-histone H2Ax expression upon treatment,MCF-7,induced to detectable levels
same,phospho-histone H2Ax expression upon treatment,A2780 [15],induced to detectable levels
same,induction of phospho-histone H2Ax (difference in OD values),AsPc1 [16],1 fold
same,induction of phos-histone H2Ax upon treatment,Colo205 [17],no detectable induction
same,induction of phospho-histone H2Ax,DLD-1 [18],4.3 fold
same,induction of phospho-histone H2Ax (difference in OD values),DU145 [19],1 fold
same,induction of phospho-histone H2Ax (difference in OD values),HT29 [20],1 fold
same,induction of phospho-histone H2Ax,LNCap [21],2.2 fold
same,induction of phospho-histone H2Ax,MDA-435,6.5 fold
same,induction of phospho-histone H2Ax,MiaPaca [22],2.3 fold
same,induction of phos-histone H2Ax upon treatment,Panc1 [23],no detectable induction
same,induction of phospho-histone H2Ax (difference in OD values),SKOV3 [24],1 fold
same,phospho-histone H2Ax expression upon treatment,SNB19 [25],induced to detectable levels
same,induction of phospho-histone H2Ax (difference in OD values),SNB75 [26],1 fold
same,induction of phospho-histone H2Ax (difference in OD values),T47D [27],1 fold
same,phospho-histone H2Ax expression upon treatment,TOV112D [28],induced to detectable levels
